Test results published in the supplement of paper PMC10307832.

Experiments:
Assay in all cases: relative viability (nuclei count vs DMSO), 5 days (fraction); higher = more cells survive
[1] = compound: CCN1C(=O)C2=CC(=C(N=C2N(C1=O)C3CC3)N)C(=O)N + Cc1nc(Nc2ncc(C(=O)Nc3c(C)cccc3Cl)s2)cc(N2CCN(CCO)CC2)n1 [Dasatinib] (partner 0.075 µM)
In short: (§1)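 One day after seeding in 1536-well plates, lung cancer cell lines were dosed by pin tool. Dosing was either single-drug or a fixed anchor-drug dose plus five library-drug doses (not always all listed) in √10 steps. After 5 days, nuclei were stained in one fix-and-stain step and counted on 4× images, and relative viability is the nuclei count of treated wells over that of vehicle wells, given as the median of duplicate plates.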

[2] = compound: CCN1C(=O)C2=CC(=C(N=C2N(C1=O)C3CC3)N)C(=O)N + COc1cc2c(Oc3ccc(NC(=O)C4(C(=O)Nc5ccc(F)cc5)CC4)cc3F)ccnc2cc1OCCCN1CCOCC1 [Foretinib] (partner 0.25 µM)
In short: as §1

[3] = compound: CCN1C(=O)C2=CC(=C(N=C2N(C1=O)C3CC3)N)C(=O)N + CCNC(=O)c1noc(-c2cc(C(C)C)c(O)cc2O)c1-c1ccc(CN2CCOCC2)cc1 [Luminespib] (partner 0.01 µM)
In short: as §1

[4] = compound: CCN1C(=O)C2=CC(=C(N=C2N(C1=O)C3CC3)N)C(=O)N + Cc1cc(Nc2cc(N3CCN(C)CC3)nc(Sc3ccc(NC(=O)C4CC4)cc3)n2)n[nH]1 [Tozasertib] (partner 0.1 µM)
In short: as §1

[5] = compound: CCN1C(=O)C2=CC(=C(N=C2N(C1=O)C3CC3)N)C(=O)N + COc1cccc2cc(-c3nc([C@H]4CC[C@H](C(=O)O)CC4)n4ncnc(N)c34)[nH]c12 [OSI-027] (partner 0.5 µM)
In short: as §1

[6] = compound: CCN1C(=O)C2=CC(=C(N=C2N(C1=O)C3CC3)N)C(=O)N + N=C(N)NC(=N)NCCc1ccccc1 [Phenformin] (partner 250 µM)
In short: as §1

[7] = compound: CCN1C(=O)C2=CC(=C(N=C2N(C1=O)C3CC3)N)C(=O)N
In short: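 Lung cancer cell lines in 1536-well plates were kept overnight at 37 °C, then pinned with five library-drug doses (not always all listed) spaced by √10 on vehicle-anchored plates. After 5 days without medium change, cells were fixed, permeabilised and Hoechst-stained in one step, imaged at 4×, and nuclei were counted with MetaXpress. Viability is treated-well nuclei divided by vehicle-well nuclei, taken as the median over plates. Plates passed only with control CV below 25% and at least one doubling.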

[8] = compound: CCN1C(=O)C2=CC(=C(N=C2N(C1=O)C3CC3)N)C(=O)N + Nc1nc2[nH]cc(CCc3ccc(C(=O)N[C@@H](CCC(=O)O)C(=O)O)cc3)c2c(=O)[nH]1 [Pemetrexed] (partner 0.2 µM)
In short: as §1

[9] = compound: CCN1C(=O)C2=CC(=C(N=C2N(C1=O)C3CC3)N)C(=O)N + CC(=O)Nc1cccc(-n2c(=O)n(C3CC3)c(=O)c3c(Nc4ccc(I)cc4F)n(C)c(=O)c(C)c32)c1 [Trametinib] (partner 0.02 µM)
In short: as §1

[10] = compound: CCN1C(=O)C2=CC(=C(N=C2N(C1=O)C3CC3)N)C(=O)N + O=C(CCCCCCC(=O)Nc1ccccc1)NO [Vorinostat] (partner 1 µM)
In short: as §1

[11] = compound: CCN1C(=O)C2=CC(=C(N=C2N(C1=O)C3CC3)N)C(=O)N + NC(=O)Nc1cc(-c2cccc(F)c2)sc1C(=O)N[C@H]1CCCNC1 [AZD7762] (partner 0.2 µM)
In short: as §1

[12] = compound: CCN1C(=O)C2=CC(=C(N=C2N(C1=O)C3CC3)N)C(=O)N + Nc1ncn([C@H]2C[C@H](O)[C@@H](CO)O2)c(=O)n1 [Decitabine] (partner 2 µM)
In short: as §1

[13] = compound: CCN1C(=O)C2=CC(=C(N=C2N(C1=O)C3CC3)N)C(=O)N + CC(=O)c1c(C)c2cnc(Nc3ccc(N4CCNCC4)cn3)nc2n(C2CCCC2)c1=O [Palbociclib] (partner 0.5 µM)
In short: as §1

[14] = compound: CCN1C(=O)C2=CC(=C(N=C2N(C1=O)C3CC3)N)C(=O)N + O=C(c1cc(Cc2n[nH]c(=O)c3ccccc23)ccc1F)N1CCN(C(=O)C2CC2)CC1 [Olaparib] (partner 8 µM)
In short: as §1

Cell Line: NCI-H1623
- relative viability ([1]; first compound 0.253 µM): 0.518
- relative viability ([1]; first compound 0.8 µM): 0.589
- relative viability ([1]; first compound 2.53 µM): 0.627
- relative viability ([1]; first compound 8 µM): 0.595
- relative viability ([2]; first compound 0.253 µM): 0.856
- relative viability ([2]; first compound 0.8 µM): 0.862
- relative viability ([2]; first compound 2.53 µM): 0.94
- relative viability ([2]; first compound 8 µM): 0.939
- relative viability ([3]; first compound 0.253 µM): 0.454
- relative viability ([3]; first compound 0.8 µM): 0.452
- relative viability ([3]; first compound 2.53 µM): 0.546
- relative viability ([3]; first compound 8 µM): 0.473
- relative viability ([4]; first compound 0.253 µM): 0.405
- relative viability ([4]; first compound 0.8 µM): 0.442
- relative viability ([4]; first compound 2.53 µM): 0.438
- relative viability ([4]; first compound 8 µM): 0.48
- relative viability ([5]; first compound 0.253 µM): 0.439
- relative viability ([5]; first compound 0.8 µM): 0.428
- relative viability ([5]; first compound 2.53 µM): 0.455
- relative viability ([5]; first compound 8 µM): 0.446
- relative viability ([6]; first compound 0.253 µM): 0.514
- relative viability ([6]; first compound 0.8 µM): 0.59
- relative viability ([6]; first compound 2.53 µM): 0.63
- relative viability ([6]; first compound 8 µM): 0.567
- relative viability ([7]; 0.253 µM): 0.922
- relative viability ([7]; 0.8 µM): 0.992
- relative viability ([7]; 2.53 µM): 1.02
- relative viability ([7]; 8 µM): 1.13

Cell Line: NCI-H1648
- relative viability ([8]; first compound 0.253 µM): 0.735
- relative viability ([8]; first compound 2.53 µM): 0.64
- relative viability ([8]; first compound 8 µM): 0.585
- relative viability ([9]; first compound 0.253 µM): 0.45
- relative viability ([9]; first compound 2.53 µM): 0.245
- relative viability ([9]; first compound 8 µM): 0.386
- relative viability ([10]; first compound 0.253 µM): 0.488
- relative viability ([10]; first compound 2.53 µM): 0.219
- relative viability ([10]; first compound 8 µM): 0.9
- relative viability ([11]; first compound 0.253 µM): 0.706
- relative viability ([11]; first compound 2.53 µM): 0.646
- relative viability ([11]; first compound 8 µM): 0.568
- relative viability ([4]; first compound 0.253 µM): 0.416
- relative viability ([4]; first compound 0.8 µM): 0.526
- relative viability ([4]; first compound 2.53 µM): 0.423
- relative viability ([4]; first compound 8 µM): 0.53
- relative viability ([12]; first compound 0.253 µM): 0.394
- relative viability ([12]; first compound 2.53 µM): 0.429
- relative viability ([12]; first compound 8 µM): 0.445
- relative viability ([5]; first compound 0.253 µM): 0.265
- relative viability ([5]; first compound 0.8 µM): 0.271
- relative viability ([5]; first compound 2.53 µM): 0.259
- relative viability ([5]; first compound 8 µM): 0.278
- relative viability ([13]; first compound 0.253 µM): 0.301
- relative viability ([13]; first compound 2.53 µM): 0.243
- relative viability ([13]; first compound 8 µM): 0.273
- relative viability ([14]; first compound 0.253 µM): 0.914
- relative viability ([14]; first compound 2.53 µM): 1.07
- relative viability ([14]; first compound 8 µM): 0.883
- relative viability ([7]; 0.253 µM): 0.835
- relative viability ([7]; 0.8 µM): 0.932
- relative viability ([7]; 2.53 µM): 0.89
- relative viability ([7]; 8 µM): 0.851
